Experiments:
[1] = system: rat model of focal cerebral ischemia (MCAO); experiment: Focal cerebral ischemia model (20 min MCAO, reperfusion); format: in vivo; conditions: GSH up to 150 mg/kg body weight after the onset of ischemia
Procedure: Animals. A total of 60 male Sprague-Dawley rats (Charles River Laboratories, Wilmington, Mass.) weighing 250-300 g were used in this study. All animals received humane care in compliance with the Medical University of South Carolina's guidance and the National Research Council's criteria for humane care as outlined in ‘Guide for the Care and Use of Laboratory Animals’. Body temperature was monitored by a rectal probe and maintained at 37±0.5° C. by a homeothermic blanket control unit (Harvard Apparatus, Holliston, Mass.). Cranial temperature and mean arterial blood pressure were measured by HSE Plugsys TAM-D and TCAM (Harvard Apparatus) respectively.
Experimental design and administration of drugs. All animal procedures were approved by the Medical University of South Carolina Animal Review Committee and were in accordance with the guidelines for animal use published by the National Institute of Health. […]
Measurement of physiological variables. The physiological variables were measured before, during MCA occlusion, at reperfusion and 30 min after reperfusion. The rectal temperature was monitored and maintained at about 37 to 37.6° C. […]
Evaluation of ischemic infarct and neurological score. […] The infarct area, outlined in white, was acquired by image-analysis software (Photoshop 4.0 Adobe System) and measured by NIH image software. […]

[2] = X-ALD patients; cited from earlier work
[3] = system: iNOS; experiment: LPS-induced iNOS expression and iNOS promoter activity in primary astrocytes (AICAR); format: cell-based, rat
Procedure: Immunoblot Analysis: Cells were harvested in ice-cold lysis buffer (50 mM Tris-HCl, pH 7.4, containing 50 mM NaCl, 1 mM EDTA, 0.5 mM EGTA, 10% glycerol and protease inhibitor cocktail) and protein was estimated using Bradford reagent (Bio-Rad, USA). Fifty microgram of total protein/lane was separated by SDS-PAGE and blotted to nitrocellulose (Amersham Pharmacia Biotech). Blots were blocked for 1 h in 5% nonfat dry milk-TBS-0.1% Tween 20 and incubated overnight with primary antibody (1:1000) in 5% BSA-TBS-0.1% Tween 20 at 4° C. This was followed by incubation of 1 h with appropriate secondary peroxidase conjugated antibody (1:10,000, Sigma). Immunoreactivity was detected using the enhanced chemiluminescence detection method according to the manufacturer's instructions (Amersham Pharmacia Biotech) and subsequent exposure of the membrane to X-ray film. Antisense experiments: To decrease the levels of endogenous AMPK, astrocytes were pretreated for 48 h with 25 μm (of phosphothiorated antisense (AS) oligonucleotide ([NT]) directly against both the ? α1 and α2 ? subunits of AMPK (Culmsee et al., 2001) ? ? ? missense (MS) oligonucleotide ([NT]) was used in control cultures. Oligonucleotides were transfected with OligofectamineTM reagent as per manufacturer's instructions. Northern blot, gene array analysis and RT-PCR for cytokines expression: Total RNA was extracted with Trizol (Gibco) according to the manufacturer's protocol. Northern blot for iNOS was performed with 15 μg of RNA per reaction as described previously (Pahan et al., 1997). β-actin was used as control for RNA loading. Gene expression array for inflammatory cytokines (TNFα, IL-1β, IL-6 and IFN-γ) was used according to the manufacturer's protocol (Superarray). Signal quantitation was determined using imaging densitomter (Bio-Rad Lab, Hercules, Calif.). For RT-PCR, RNA was isolated from treated rat brain cerebral cortex by extracting in Trizol as above. cDNA was prepared from 5 μg of total RNA using poly dT as a primer and Moloney murine leukemia virus reverse transcriptase (Promega) as per manufacturer's instructions. 2 μl of cDNA was used to amplify the following products [given as product name, expected size, and forward (F) and reverse (R) primers used]: iNOS, 730 bp. ([NT]-1β, 623 bp. ([…]-α, 473 bp. ([…], 528 bp. […] Transcriptional assays: Primary astrocytes or microglial cell line (BV2) were transiently transfected with NF- ? B-or iNOS-luciferase reporter gene with ? -galactosidase in the presence or absence of dominant negative AMPKα2 or HA-IKK ? by lipofectamine-2000 (astrocytes) and lipofectamine-Plus (BV2, Invitrogen) according to the manufacturer instructions. pcDNA3 was used to normalize all groups to equal amounts of DNA. Luciferase activity was determined using a luciferase kit (Promega).

[4] = system: AMPK; experiment: Phosphorylation of AMPK and ACC in primary astrocytes (immunoblot); format: cell-based, rat
Procedure: Immunoblot Analysis: Cells were harvested in ice-cold lysis buffer (50 mM Tris-HCl, pH 7.4, containing 50 mM NaCl, 1 mM EDTA, 0.5 mM EGTA, 10% glycerol and protease inhibitor cocktail) and protein was estimated using Bradford reagent (Bio-Rad, USA). Fifty microgram of total protein/lane was separated by SDS-PAGE and blotted to nitrocellulose (Amersham Pharmacia Biotech). Blots were blocked for 1 h in 5% nonfat dry milk-TBS-0.1% Tween 20 and incubated overnight with primary antibody (1:1000) in 5% BSA-TBS-0.1% Tween 20 at 4° C. This was followed by incubation of 1 h with appropriate secondary peroxidase conjugated antibody (1:10,000, Sigma). Immunoreactivity was detected using the enhanced chemiluminescence detection method according to the manufacturer's instructions (Amersham Pharmacia Biotech) and subsequent exposure of the membrane to X-ray film.
Antisense experiments: To decrease the levels of endogenous AMPK, astrocytes were pretreated for 48 h with 25 μm (of phosphothiorated antisense (AS) oligonucleotide (5′ […]-3′) directly against both the ? α1 and α2 ? subunits of AMPK (Culmsee et al., 2001) ? ? ? missense (MS) oligonucleotide (5′ […]-3′) was used in control cultures. Oligonucleotides were transfected with Oligofectamine™ reagent as per manufacturer's instructions.
AMPK and IKKα/ ? assays: AMPK activity was assayed in primary rat astrocytes as described (Kim et al., 2001). […]

N[C@@H](CCC(=O)N[C@@H](CS)C(=O)NCC(=O)O)C(=O)O [GSH, gamma-glutamylcysteinylglycine]
protective effect in ischemia [1]: no protective effect

CCCCCCCC/C=C\CCCCCCCC(=O)OCC(COC(=O)CCCCCCC/C=C\CCCCCCCC)OC(=O)CCCCCCC/C=C\CCCCCCCC [trioleate]
reduction of VLCFA [2]: 50%

Nc1ncnc2c1c(I)cn2[C@@H]1O[C@H](CO)[C@@H](O)[C@H]1O [5-iodotubercidin]
effect on inhibition induced by AICAR on iNOS protein expression ([3]; adenosine kinase inhibitor with AICAR and LPS, 24 h): reverse the inhibition
effect on AICAR induced phosphorylation of AMPK and ACC ([4]; adenosine kinase inhibitor 0.1 μM, 30 min before AICAR 1 mM): blocked

5′ CGCCCGTCGTCGTGCTTCTGC-3′ (phosphorothioate, further chemistry not given here) [antisense (AS), phosphothiorated antisense oligonucleotide against the α1 and α2 subunits of AMPK]
LPS mediated iNOS protein expression ([3]; AMPK antisense 25 μM, then LPS 1 μg/ml): significantly induced
catalytic subunit AMPKα1 level (immunoblot) ([4]; 25 μM antisense, 48 h): decreased

Source: patent US20070270350A1, “Methods and Compositions for the Prevention and Treatment of Inflammatory Diseases or Conditions” (MUSC FOUNDATION FOR RESEARCH DEVELOPMENT, priority 2003, published 2007)
